As usually defined, the IC50 is the point on the concentration scale where inhibition reaches its midpoint.

Here are results for twelve compounds from patent publication US20260207602A1, “EGFR INHIBITORS” (Blueprint Medicines Corporation, priority 2022, published 2026).

One experiment deals with EGFR M+ NSCLC patients. The following applies: first line (1L), NSCLC harboring del19 and L858R mutations; cited from earlier work.
The target of another experiment is T1, EGFR L858R (Homo sapiens, UniProt P00533, L858R).
T1 construct: purchased SignalChem E10-122BG
Kind of experiment: Biochemical EGFR inhibition assay (Caliper mobility shift), EGFR L858R. The following applies: biochemical Caliper mobility shift assay, EGFR L858R enzyme; read-out: Enz EGFR L858R IC50. The method, boiled down: (§1)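 Recombinant EGFR mutant phosphorylates 2.5 μM 5-FAM peptide at 1.0 mM ATP or ATP Km, in 100 mM HEPES pH 7.5, 10 mM MgCl2, 1 mM DTT, 1% DMSO, 25 °C to 10–20% conversion, EDTA stop. Caliper mobility shift separation; apparent IC50 from percent activity versus log concentration.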

Experiment [1] deals with intracellular phosphorylation of EGFR (Tyr1068) in PC-9 cells (Homo sapiens, UniProt P00533, DEL746-750). Kind of experiment: PC-9 pEGFR AlphaLISA assay. The following applies: 4 hours incubation, read-out: Phos EGFR PC9 IC50. The format is cell-based. In outline: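 PC-9 cells (EGFR del746-750) in phenol-free DMEM/10% FBS, adhered overnight, then exposed to 10-point 4-fold compound dilutions for 4 h at 37 °C. Lysates assayed for pEGFR Tyr1068 by AlphaLISA SureFire Ultra; IC50 from percent pEGFR inhibition vs log concentration.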

A further experiment concerns the target T2, EGFR (d746-750) (Homo sapiens, UniProt P00533, DEL746-750).
T2 construct: purchased SignalChem E10-122JG
Kind of experiment: Biochemical EGFR inhibition assay (Caliper mobility shift), EGFR (d746-750). The settings on record: biochemical Caliper mobility shift assay, EGFR Exon 19-del enzyme; read-out: Enz EGFR Exon 19-del IC50. In outline: as §1

SMILES strings stand for the structures. A value given as a limit tells only on which side of the number the result lay.

T2 sequence (P00533 with tags, fused parts or gaps DEL746-750 limits assumed): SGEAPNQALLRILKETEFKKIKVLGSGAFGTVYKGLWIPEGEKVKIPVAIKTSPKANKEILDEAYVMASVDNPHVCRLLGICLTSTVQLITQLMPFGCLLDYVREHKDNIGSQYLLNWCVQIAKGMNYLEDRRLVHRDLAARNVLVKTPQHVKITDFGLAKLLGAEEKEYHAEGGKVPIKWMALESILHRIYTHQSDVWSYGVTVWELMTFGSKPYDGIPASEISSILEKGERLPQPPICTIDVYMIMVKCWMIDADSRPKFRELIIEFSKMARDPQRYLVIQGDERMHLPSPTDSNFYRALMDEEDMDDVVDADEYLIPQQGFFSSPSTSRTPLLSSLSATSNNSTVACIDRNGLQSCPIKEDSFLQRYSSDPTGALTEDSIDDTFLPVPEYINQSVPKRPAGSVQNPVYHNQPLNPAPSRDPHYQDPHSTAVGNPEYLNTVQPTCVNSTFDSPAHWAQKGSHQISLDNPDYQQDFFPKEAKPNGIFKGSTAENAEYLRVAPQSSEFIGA
Sequence of intracellular phosphorylation of EGFR (Tyr1068) in PC-9 cells (P00533 with tags, fused parts or gaps DEL746-750): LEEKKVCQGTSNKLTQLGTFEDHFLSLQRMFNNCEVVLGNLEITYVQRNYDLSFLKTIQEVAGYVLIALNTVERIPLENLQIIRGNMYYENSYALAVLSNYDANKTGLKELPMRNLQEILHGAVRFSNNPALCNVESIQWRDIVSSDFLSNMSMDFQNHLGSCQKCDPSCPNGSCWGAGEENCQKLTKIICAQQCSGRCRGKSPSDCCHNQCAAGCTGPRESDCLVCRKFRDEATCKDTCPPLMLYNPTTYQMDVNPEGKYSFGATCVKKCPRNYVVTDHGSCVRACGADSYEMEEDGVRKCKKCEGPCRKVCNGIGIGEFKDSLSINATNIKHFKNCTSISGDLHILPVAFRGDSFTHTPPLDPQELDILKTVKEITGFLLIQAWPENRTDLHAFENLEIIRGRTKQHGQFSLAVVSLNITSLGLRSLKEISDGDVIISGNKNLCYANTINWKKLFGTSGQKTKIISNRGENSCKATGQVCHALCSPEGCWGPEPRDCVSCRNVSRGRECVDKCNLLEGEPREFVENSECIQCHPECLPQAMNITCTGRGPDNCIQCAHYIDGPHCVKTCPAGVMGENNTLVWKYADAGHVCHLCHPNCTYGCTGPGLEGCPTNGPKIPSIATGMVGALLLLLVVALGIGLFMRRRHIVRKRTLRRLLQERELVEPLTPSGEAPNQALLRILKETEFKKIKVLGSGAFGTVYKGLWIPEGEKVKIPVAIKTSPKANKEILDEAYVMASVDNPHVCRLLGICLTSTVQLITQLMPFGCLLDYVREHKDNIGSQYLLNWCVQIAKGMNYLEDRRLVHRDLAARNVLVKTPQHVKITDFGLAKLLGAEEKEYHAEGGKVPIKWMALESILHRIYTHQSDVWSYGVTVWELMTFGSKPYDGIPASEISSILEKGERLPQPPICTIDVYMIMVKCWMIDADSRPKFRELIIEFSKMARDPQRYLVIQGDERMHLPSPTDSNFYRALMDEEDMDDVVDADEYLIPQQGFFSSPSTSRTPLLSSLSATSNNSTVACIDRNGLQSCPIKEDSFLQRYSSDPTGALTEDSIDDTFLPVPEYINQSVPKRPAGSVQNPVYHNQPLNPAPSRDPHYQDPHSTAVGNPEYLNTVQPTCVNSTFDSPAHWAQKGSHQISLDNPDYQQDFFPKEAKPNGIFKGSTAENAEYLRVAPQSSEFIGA
T1 sequence (P00533 25-1210 L858R): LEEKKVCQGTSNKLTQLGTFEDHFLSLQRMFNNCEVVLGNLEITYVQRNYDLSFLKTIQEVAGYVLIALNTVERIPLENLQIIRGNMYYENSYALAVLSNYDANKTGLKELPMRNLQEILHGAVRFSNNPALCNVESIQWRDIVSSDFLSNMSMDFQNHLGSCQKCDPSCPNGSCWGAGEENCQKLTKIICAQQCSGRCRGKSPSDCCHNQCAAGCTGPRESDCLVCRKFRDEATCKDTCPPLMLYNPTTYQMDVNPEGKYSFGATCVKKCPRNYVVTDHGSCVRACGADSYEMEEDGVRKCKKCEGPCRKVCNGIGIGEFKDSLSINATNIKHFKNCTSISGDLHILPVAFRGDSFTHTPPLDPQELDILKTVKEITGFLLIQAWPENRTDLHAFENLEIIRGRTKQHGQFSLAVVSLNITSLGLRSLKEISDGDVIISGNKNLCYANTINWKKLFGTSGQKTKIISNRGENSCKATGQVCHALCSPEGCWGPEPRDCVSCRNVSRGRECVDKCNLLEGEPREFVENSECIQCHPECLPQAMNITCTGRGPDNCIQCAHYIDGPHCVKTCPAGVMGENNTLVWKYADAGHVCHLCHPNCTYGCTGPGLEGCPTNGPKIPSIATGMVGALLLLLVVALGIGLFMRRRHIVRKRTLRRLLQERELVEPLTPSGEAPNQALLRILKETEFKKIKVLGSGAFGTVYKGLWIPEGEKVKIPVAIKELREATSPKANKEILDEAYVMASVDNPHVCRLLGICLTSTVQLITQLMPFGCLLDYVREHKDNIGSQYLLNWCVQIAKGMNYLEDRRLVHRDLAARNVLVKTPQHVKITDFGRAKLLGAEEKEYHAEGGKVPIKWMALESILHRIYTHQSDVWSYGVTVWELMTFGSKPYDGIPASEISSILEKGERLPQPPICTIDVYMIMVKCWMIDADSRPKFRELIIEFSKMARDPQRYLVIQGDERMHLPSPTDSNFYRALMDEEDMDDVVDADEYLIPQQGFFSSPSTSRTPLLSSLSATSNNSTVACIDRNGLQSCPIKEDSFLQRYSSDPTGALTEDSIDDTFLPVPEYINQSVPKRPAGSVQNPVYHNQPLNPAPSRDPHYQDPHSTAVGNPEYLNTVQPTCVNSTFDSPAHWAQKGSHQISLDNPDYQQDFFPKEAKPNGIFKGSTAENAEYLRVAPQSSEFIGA

For the compound `C=CC(=O)Nc1cc(Nc2nccc(-c3cn(C)c4ccccc34)n2)c(OC)cc1N(C)CCN(C)C` [Osimertinib], the “progression-free survival (PFS)” value in the experiment on EGFR M+ NSCLC patients was 18.9 mo.
In the case of `CNC[C@@H](C)Oc1cc(-c2cnn(C)c2)cc2ncnc(Nc3ccc4ncsc4c3)c12` [Example 396, (R)-N-(7-(1-methyl-1H-pyrazol-4-yl)-5-((1-(methylamino)propan-2-yl)oxy)quinazolin-4-yl)benzo[d]thiazol-6-amine], the 50% inhibitory concentration (IC50) was 10.1 to 50 nM at EGFR L858R, at most 10 nM in experiment [1] and at most 10 nM on EGFR (d746-750).
Consider `COc1cc(O[C@H](C)C2COC2)c2c(Nc3ccc4ncsc4c3F)ncnc2c1` (single isomer, unassigned) [Example 83], for which the half-maximal inhibitory concentration (IC50) (on EGFR L858R; in experiment [1]; at EGFR (d746-750)) was at most 10 nM in each case.
For `C[C@@H]1CN(C)CCN1C(=O)Nc1cc2c(Nc3ccc4ncsc4c3)ncnc2cc1-c1ccn(C)n1` [Example 255, (R)-N-(4-(benzo[d]thiazol-6-ylamino)-7-(1-methyl-1H-pyrazol-3-yl)quinazolin-6-yl)-2,4-dimethylpiperazine-1-carboxamide], the IC50 (at EGFR L858R; in experiment [1]; at EGFR (d746-750)) was at most 10 nM throughout.
For `C[C@@H](Oc1cc(-c2cnn(C)c2)cc2ncnc(Nc3ccc4ncsc4c3F)c12)[C@H]1CCCO1` [Example 113, 7-fluoro-N-(7-(1-methyl-1H-pyrazol-4-yl)-5-((R)-1-((R)-tetrahydrofuran-2-yl)ethoxy)quinazolin-4-yl)benzo[d]thiazol-6-amine], the half-inhibitory concentration (IC50) (on EGFR L858R; in experiment [1]; at EGFR (d746-750)) was at most 10 nM each time.
As to `Cn1cc(-c2cc(OCC(=O)N3CC4(COC4)C3)c3c(Nc4ccc5ncsc5c4)ncnc3c2)cn1` [Example 270, 2-((4-(benzo[d]thiazol-6-ylamino)-7-(1-methyl-1H-pyrazol-4-yl)quinazolin-5-yl)oxy)-1-(2-oxa-6-azaspiro[3.3]heptan-6-yl)ethan-1-one], the IC50 is at most 10 nM on EGFR L858R, 10.1 to 50 nM in experiment [1] and at most 10 nM on EGFR (d746-750).
Turning to `CN1CC[C@@H](Nc2cc3c(Nc4ccc5ncsc5c4)ncnc3cc2-c2ccn(C)n2)[C@H](F)C1` (single isomer, unassigned) [Example 327], the IC50 (at EGFR L858R; in experiment [1]; at EGFR (d746-750)) was at most 10 nM in each case.
As for `C[C@@H](Oc1cc(N2CC3(COC3)C2)cc2ncnc(Nc3ccc4ncsc4c3)c12)C1COC1` [Example 204, (R)-N-(5-(1-(oxetan-3-yl)ethoxy)-7-(2-oxa-6-azaspiro[3.3]heptan-6-yl)quinazolin-4-yl)benzo[d]thiazol-6-amine], the half-maximal inhibitory concentration (IC50) (on EGFR L858R; in experiment [1]; at EGFR (d746-750)) was at most 10 nM each time.
In the case of `CN1CCC[C@H](Oc2cc(-c3cn(C)n(C(F)F)c3=O)cc3ncnc(Nc4ccc5ncsc5c4)c23)C1` [Example 249, (S)-4-(4-(benzo[d]thiazol-6-ylamino)-5-((1-methylpiperidin-3-yl)oxy)quinazolin-7-yl)-2-(difluoromethyl)-1-methyl-1,2-dihydro-3H-pyrazol-3-one], the IC50 is at most 10 nM on EGFR L858R, 10.1 to 50 nM in experiment [1] and at most 10 nM at EGFR (d746-750).
Turning to `Cn1cc(-c2cc(OC3CCN(C4CCOCC4)CC3)c3c(Nc4ccc5ncsc5c4)ncnc3c2)cn1` [Example 412, N-(7-(1-methyl-1H-pyrazol-4-yl)-5-((1-(tetrahydro-2H-pyran-4-yl)piperidin-4-yl)oxy)quinazolin-4-yl)benzo[d]thiazol-6-amine], the half-maximal inhibitory concentration (IC50) on EGFR L858R is 10.1 to 50 nM; in experiment [1], 10.1 to 50 nM; on EGFR (d746-750), at most 10 nM.
Turning to `CN1CCC(Nc2cc3c(Nc4ccc5ncsc5c4)ncnc3cc2-c2ccn(C)n2)CC1` [Example 258, N4-(benzo[d]thiazol-6-yl)-7-(1-methyl-1H-pyrazol-3-yl)-N6-(1-methylpiperidin-4-yl)quinazoline-4,6-diamine], the 50% inhibitory concentration (IC50) (on EGFR L858R; in experiment [1]; at EGFR (d746-750)) was at most 10 nM each time.
Regarding `C[C@@H](Oc1cc(-c2cnn(C)c2)cc2ncnc(Nc3ccc4ncsc4c3F)c12)C(=O)N(C)C` (single isomer, unassigned) [Example 279], the half-inhibitory concentration (IC50) (on EGFR L858R; in experiment [1]; on EGFR (d746-750)) was at most 10 nM each time.
